Reference: US9695155B2, “Herbicidal substituted pyrimidinyloxy benzene compounds” (E. I. DU PONT DE NEMOURS AND COMPANY, priority 2013, dated 2017)

How the values were obtained:
[1] = system: barnyardgrass; assay: Test A preemergence; assay type: in vivo, Echinochloa crus-galli; details: for Barnyardgrass plant response rating: 500 g ai/ha, approx. 10 days
Text: (§1) Seeds of plant species selected from barnyardgrass (Echinochloa crus-galli), kochia (Kochia scoparia), ragweed (common ragweed, Ambrosia elatior), Italian ryegrass (Lolium multiflorum), large (Lg) crabgrass (Digitaria sanguinalis), giant foxtail (Setaria faberii), morningglory (Ipomoea spp.), pigweed (Amaranthus retroflexus), velvetleaf (Abutilon theophrasti), wheat (Triticum aestivum), and corn (Zea mays) were planted into a blend of loam soil and sand and treated preemergence with a directed soil spray using test chemicals formulated in a non-phytotoxic solvent mixture which included a surfactant.
(§2) At the same time, plants selected from these crop and weed species and also blackgrass (Alopecurus myosuroides), and galium (catchweed bedstraw, Galium aparine) were planted in pots containing the same blend of loam soil and sand and treated with postemergence applications of test chemicals formulated in the same manner. Plants ranged in height from 2 to 10 cm and were in the one- to two-leaf stage for the postemergence treatment. Treated plants and untreated controls were maintained in a greenhouse for approximately 10 days, after which time all treated plants were compared to untreated controls and visually evaluated for injury. Plant response ratings, summarized in Table A, are based on a 0 to 100 scale where 0 is no effect and 100 is complete control. A dash (-) response means no test result.

[2] = system: large (Lg) crabgrass; assay: Test A preemergence; assay type: in vivo, Digitaria sanguinalis; details: for Crabgrass, Large plant response rating: 500 g ai/ha, approx. 10 days
Text: as §1, §2

[3] = system: giant foxtail; assay: Test A preemergence; assay type: in vivo, Setaria faberii; details: for Foxtail, Giant plant response rating: 0 to 100 scale, 0 no effect, 100 complete control, approx. 10 days; for Plant response rating, Foxtail, Giant: 125 g ai/ha, 0 to 100 scale where 0 is no effect and 100 is complete control
Text: as §1, §2

[4] = system: morningglory; assay: Test A preemergence; assay type: in vivo, Ipomoea spp.; details: for Morningglory plant response rating: 0 to 100 scale, 0 no effect, 100 complete control, approx. 10 days
Text: as §1, §2

[5] = system: pigweed; assay: Test A preemergence; assay type: in vivo, Amaranthus retroflexus; details: for Pigweed plant response rating: 0 to 100 scale, 0 no effect, 100 complete control, approx. 10 days; for Plant response rating, Pigweed: 125 g ai/ha, 0 to 100 scale where 0 is no effect and 100 is complete control
Text: as §1, §2

[6] = system: velvetleaf; assay: Test A preemergence; assay type: in vivo, Abutilon theophrasti; details: for Velvetleaf plant response rating: 0 to 100 scale, 0 no effect, 100 complete control, approx. 10 days; for Plant response rating, Velvetleaf: 125 g ai/ha, 0 to 100 scale where 0 is no effect and 100 is complete control
Text: as §1, §2

[7] = system: wheat; assay: Test A preemergence; assay type: in vivo, Triticum aestivum; details: for Wheat plant response rating: 0 to 100 scale, 0 no effect, 100 complete control, approx. 10 days; for Plant response rating, Wheat: 125 g ai/ha, 0 to 100 scale where 0 is no effect and 100 is complete control
Text: as §1, §2

[8] = system: corn; assay: Test A preemergence; assay type: in vivo, Zea mays; details: for Corn plant response rating: 500 g ai/ha, approx. 10 days
Text: as §1, §2

[9] = system: barnyardgrass; assay: Test A postemergence; assay type: in vivo, Echinochloa crus-galli
Text: as §1, §2

[10] = system: large (Lg) crabgrass; assay: Test A postemergence; assay type: in vivo, Digitaria sanguinalis
Text: as §1, §2

[11] = system: giant foxtail; assay: Test A postemergence; assay type: in vivo, Setaria faberii
Text: as §1, §2

[12] = system: morningglory; assay: Test A postemergence; assay type: in vivo, Ipomoea spp.
Text: as §1, §2

[13] = system: pigweed; assay: Test A postemergence; assay type: in vivo, Amaranthus retroflexus
Text: as §1, §2

[14] = system: velvetleaf; assay: Test A postemergence; assay type: in vivo, Abutilon theophrasti
Text: as §1, §2

[15] = system: wheat; assay: Test A postemergence; assay type: in vivo, Triticum aestivum
Text: as §1, §2

[16] = system: corn; assay: Test A postemergence; assay type: in vivo, Zea mays
Text: as §1, §2

[17] = system: rice; assay: Test B flooded paddy test; assay type: in vivo, Oryza sativa; details: Flood, 250 g ai/ha; 0 to 100 scale where 0 is no effect and 100 is complete control
Description: (§3) Plant species in the flooded paddy test selected from rice (Oryza sativa), sedge, umbrella (small-flower umbrella sedge, Cyperus difformis), (Heteranthera limosa), and barnyardgrass (Echinochloa crus-galli) were grown to the 2-leaf stage for testing. At time of treatment, test pots were flooded to 3 cm above the soil surface, treated by application of test compounds directly to the paddy water, and then maintained at that water depth for the duration of the test. Treated plants and controls were maintained in a greenhouse for 13 to 15 days, after which time all species were compared to controls and visually evaluated. Plant response ratings, summarized in Table B, are based on a scale of 0 to 100 where 0 is no effect and 100 is complete control. A dash (-) response means no test result.

[18] = system: sedge, umbrella; assay: Test B flooded paddy test; assay type: in vivo, Cyperus difformis; details: Flood, 250 g ai/ha; 0 to 100 scale where 0 is no effect and 100 is complete control
Description: as §3

[19] = system: Heteranthera limosa; assay: Test B flooded paddy test; assay type: in vivo; details: Flood, 250 g ai/ha; 0 to 100 scale where 0 is no effect and 100 is complete control
Description: as §3

[20] = system: barnyardgrass; assay: Test B flooded paddy test; assay type: in vivo, Echinochloa crus-galli; details: Flood, 250 g ai/ha; 0 to 100 scale where 0 is no effect and 100 is complete control
Description: as §3

[21] = 1000 g ai/ha, 0 to 100 scale, 0 no effect, 100 complete control
[22] = 125 g ai/ha, 0 to 100 scale where 0 is no effect and 100 is complete control
[23] = 0 to 100 scale, 0 no effect, 100 complete control
[24] = 500 g ai/ha, 0 to 100 scale, 0 no effect, 100 complete control
[25] = 500 g ai/ha, 0 to 100 scale where 0 is no effect and 100 is complete control

N#Cc1cnn(-c2ccccc2Oc2ncc(Br)cn2)n1 [Compound 56]
Plant response rating, Barnyardgrass [1, 21]: 0
Plant response rating, Crabgrass, Large [2, 21]: 80
Foxtail, Giant plant response rating ([3]; 1000 g ai/ha): 30
Morningglory plant response rating ([4]; 1000 g ai/ha): 0
Pigweed plant response rating ([5]; 1000 g ai/ha): 100
Velvetleaf plant response rating ([6]; 1000 g ai/ha): 90
Wheat plant response rating ([7]; 1000 g ai/ha): 0
Plant response rating, Corn [8, 21]: 20
Plant response rating, Barnyardgrass [9, 21]: 30
Plant response rating, Crabgrass, Large [10, 21]: 40
Plant response rating, Foxtail, Giant [11, 21]: 30
Plant response rating, Morningglory [12, 21]: 0
Plant response rating, Pigweed [13, 21]: 90
Plant response rating, Velvetleaf [14, 21]: 100
Plant response rating, Wheat [15, 21]: 0
Plant response rating, Corn [16, 21]: 20

COc1cccc(-n2cc(Br)cn2)c1Oc1ncc(Cl)cn1 [Compound 41]
Plant response rating, Barnyardgrass [1, 22]: 10
Barnyardgrass plant response rating [1, 23]: 50
Plant response rating, Crabgrass, Large [2, 22]: 30
Crabgrass, Large plant response rating [2, 23]: 70
Plant response rating, Foxtail, Giant [3]: 10
Foxtail, Giant plant response rating ([3]; 500 g ai/ha): 80
Plant response rating, Morningglory [4, 22]: 0
Morningglory plant response rating ([4]; 500 g ai/ha): 0
Plant response rating, Pigweed [5]: 70
Pigweed plant response rating ([5]; 500 g ai/ha): 100
Plant response rating, Velvetleaf [6]: 60
Velvetleaf plant response rating ([6]; 500 g ai/ha): 70
Plant response rating, Wheat [7]: 0
Wheat plant response rating ([7]; 500 g ai/ha): 0
Plant response rating, Corn [8, 22]: 0
Corn plant response rating [8, 23]: 0
Plant response rating, Barnyardgrass [9, 22]: 10
Plant response rating, Barnyardgrass [9, 24]: 50
Plant response rating, Crabgrass, Large [10, 22]: 20
Plant response rating, Crabgrass, Large [10, 24]: 70
Plant response rating, Foxtail, Giant [11, 22]: 20
Plant response rating, Foxtail, Giant [11, 24]: 80
Plant response rating, Morningglory [12, 22]: 20
Plant response rating, Morningglory [12, 24]: 30
Plant response rating, Pigweed [13, 22]: 50
Plant response rating, Pigweed [13, 24]: 80
Plant response rating, Velvetleaf [14, 22]: 70
Plant response rating, Velvetleaf [14, 24]: 100
Plant response rating, Wheat [15, 22]: 0
Plant response rating, Wheat [15, 24]: 0
Plant response rating, Corn [16, 22]: 0
Plant response rating, Corn [16, 24]: 20

FC(F)(F)Oc1cccc(Oc2ncc(Cl)cn2)c1-n1cc(Br)cn1 [Compound 78]
Barnyardgrass plant response rating [1, 23]: 80
Crabgrass, Large plant response rating [2, 23]: 100
Foxtail, Giant plant response rating ([3]; 500 g ai/ha): 100
Morningglory plant response rating ([4]; 500 g ai/ha): 20
Pigweed plant response rating ([5]; 500 g ai/ha): 100
Velvetleaf plant response rating ([6]; 500 g ai/ha): 50
Wheat plant response rating ([7]; 500 g ai/ha): 10
Corn plant response rating [8, 23]: 10
Plant response rating, Barnyardgrass [9, 24]: 50
Plant response rating, Crabgrass, Large [10, 24]: 100
Plant response rating, Foxtail, Giant [11, 25]: 90
Plant response rating, Morningglory [12, 25]: 90
Plant response rating, Pigweed [13, 25]: 100
Plant response rating, Velvetleaf [14, 25]: 100
Plant response rating, Wheat [15, 25]: 20
Plant response rating, Corn [16, 24]: 30

N#Cc1cnn(-c2ccccc2Oc2ncc(Cl)cn2)c1 [Compound 33]
Plant response rating, Barnyardgrass [1, 22]: 0
Barnyardgrass plant response rating [1, 23]: 70
Plant response rating, Crabgrass, Large [2, 22]: 90
Crabgrass, Large plant response rating [2, 23]: 100
Plant response rating, Foxtail, Giant [3]: 90
Foxtail, Giant plant response rating ([3]; 500 g ai/ha): 100
Plant response rating, Pigweed [5]: 100
Pigweed plant response rating ([5]; 500 g ai/ha): 100
Plant response rating, Velvetleaf [6]: 50
Velvetleaf plant response rating ([6]; 500 g ai/ha): 100
Plant response rating, Wheat [7]: 0
Wheat plant response rating ([7]; 500 g ai/ha): 0
Plant response rating, Corn [8, 22]: 0
Corn plant response rating [8, 23]: 0
Plant response rating, Barnyardgrass [9, 22]: 0
Plant response rating, Barnyardgrass [9, 24]: 100
Plant response rating, Crabgrass, Large [10, 22]: 20
Plant response rating, Crabgrass, Large [10, 24]: 80
Plant response rating, Foxtail, Giant [11, 22]: 70
Plant response rating, Foxtail, Giant [11, 24]: 100
Plant response rating, Pigweed [13, 22]: 100
Plant response rating, Pigweed [13, 24]: 100
Plant response rating, Velvetleaf [14, 22]: 100
Plant response rating, Velvetleaf [14, 24]: 100
Plant response rating, Wheat [15, 22]: 0
Plant response rating, Wheat [15, 24]: 90
Plant response rating, Corn [16, 22]: 0
Plant response rating, Corn [16, 24]: 100
Plant response rating, Rice [17]: 0
Plant response rating, Sedge, Umbrella [18]: 20
Plant response rating, Ducksalad [19]: 80
Plant response rating, Barnyardgrass [20]: 10
